From ChEMBL document CHEMBL2375296, “BCR-ABL tyrosine kinase inhibitor pharmacophore model derived from a series of phenylaminopyrimidine-based (PAP) derivatives” (Bioorg Med Chem Lett, 2013)

What follows are compounds tested against Bcr/Abl fusion protein (Homo sapiens, UniProt P00519) (assay: Inhibition of BCR-ABL kinase (unknown origin)).
Type: protein assay

Chain of Bcr/Abl fusion protein (P00519 whole entry, the tested form may be a part): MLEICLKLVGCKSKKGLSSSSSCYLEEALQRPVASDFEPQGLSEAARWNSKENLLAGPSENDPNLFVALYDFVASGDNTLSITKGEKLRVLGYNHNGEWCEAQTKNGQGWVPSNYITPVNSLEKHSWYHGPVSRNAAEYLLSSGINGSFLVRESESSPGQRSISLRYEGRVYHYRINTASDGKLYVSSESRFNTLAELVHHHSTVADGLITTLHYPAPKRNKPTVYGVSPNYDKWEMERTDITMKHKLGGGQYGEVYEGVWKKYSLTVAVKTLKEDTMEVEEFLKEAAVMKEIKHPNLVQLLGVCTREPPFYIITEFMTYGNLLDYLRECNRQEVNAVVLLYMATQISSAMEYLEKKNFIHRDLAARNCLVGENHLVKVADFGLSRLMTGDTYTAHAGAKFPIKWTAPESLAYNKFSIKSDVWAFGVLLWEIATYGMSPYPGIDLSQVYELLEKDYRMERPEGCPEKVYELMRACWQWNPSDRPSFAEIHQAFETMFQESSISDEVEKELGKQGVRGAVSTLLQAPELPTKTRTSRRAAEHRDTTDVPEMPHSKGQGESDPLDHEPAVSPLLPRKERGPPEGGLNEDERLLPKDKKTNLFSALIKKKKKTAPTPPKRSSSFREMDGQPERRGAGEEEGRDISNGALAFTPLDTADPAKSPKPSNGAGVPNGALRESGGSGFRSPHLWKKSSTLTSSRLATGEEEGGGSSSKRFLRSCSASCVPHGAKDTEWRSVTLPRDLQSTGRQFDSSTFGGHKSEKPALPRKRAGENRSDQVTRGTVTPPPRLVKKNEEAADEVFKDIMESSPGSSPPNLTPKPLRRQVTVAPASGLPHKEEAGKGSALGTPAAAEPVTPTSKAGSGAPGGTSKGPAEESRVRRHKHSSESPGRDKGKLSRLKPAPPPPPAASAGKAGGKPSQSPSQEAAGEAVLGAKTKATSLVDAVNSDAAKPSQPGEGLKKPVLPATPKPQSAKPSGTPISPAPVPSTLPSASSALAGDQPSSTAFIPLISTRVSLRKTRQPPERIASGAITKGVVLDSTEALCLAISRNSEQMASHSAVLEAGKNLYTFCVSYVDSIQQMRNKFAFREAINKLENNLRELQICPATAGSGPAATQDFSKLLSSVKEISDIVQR
Chain of Bcr/Abl fusion protein (P11274 whole entry, further chain, the tested form may be a part): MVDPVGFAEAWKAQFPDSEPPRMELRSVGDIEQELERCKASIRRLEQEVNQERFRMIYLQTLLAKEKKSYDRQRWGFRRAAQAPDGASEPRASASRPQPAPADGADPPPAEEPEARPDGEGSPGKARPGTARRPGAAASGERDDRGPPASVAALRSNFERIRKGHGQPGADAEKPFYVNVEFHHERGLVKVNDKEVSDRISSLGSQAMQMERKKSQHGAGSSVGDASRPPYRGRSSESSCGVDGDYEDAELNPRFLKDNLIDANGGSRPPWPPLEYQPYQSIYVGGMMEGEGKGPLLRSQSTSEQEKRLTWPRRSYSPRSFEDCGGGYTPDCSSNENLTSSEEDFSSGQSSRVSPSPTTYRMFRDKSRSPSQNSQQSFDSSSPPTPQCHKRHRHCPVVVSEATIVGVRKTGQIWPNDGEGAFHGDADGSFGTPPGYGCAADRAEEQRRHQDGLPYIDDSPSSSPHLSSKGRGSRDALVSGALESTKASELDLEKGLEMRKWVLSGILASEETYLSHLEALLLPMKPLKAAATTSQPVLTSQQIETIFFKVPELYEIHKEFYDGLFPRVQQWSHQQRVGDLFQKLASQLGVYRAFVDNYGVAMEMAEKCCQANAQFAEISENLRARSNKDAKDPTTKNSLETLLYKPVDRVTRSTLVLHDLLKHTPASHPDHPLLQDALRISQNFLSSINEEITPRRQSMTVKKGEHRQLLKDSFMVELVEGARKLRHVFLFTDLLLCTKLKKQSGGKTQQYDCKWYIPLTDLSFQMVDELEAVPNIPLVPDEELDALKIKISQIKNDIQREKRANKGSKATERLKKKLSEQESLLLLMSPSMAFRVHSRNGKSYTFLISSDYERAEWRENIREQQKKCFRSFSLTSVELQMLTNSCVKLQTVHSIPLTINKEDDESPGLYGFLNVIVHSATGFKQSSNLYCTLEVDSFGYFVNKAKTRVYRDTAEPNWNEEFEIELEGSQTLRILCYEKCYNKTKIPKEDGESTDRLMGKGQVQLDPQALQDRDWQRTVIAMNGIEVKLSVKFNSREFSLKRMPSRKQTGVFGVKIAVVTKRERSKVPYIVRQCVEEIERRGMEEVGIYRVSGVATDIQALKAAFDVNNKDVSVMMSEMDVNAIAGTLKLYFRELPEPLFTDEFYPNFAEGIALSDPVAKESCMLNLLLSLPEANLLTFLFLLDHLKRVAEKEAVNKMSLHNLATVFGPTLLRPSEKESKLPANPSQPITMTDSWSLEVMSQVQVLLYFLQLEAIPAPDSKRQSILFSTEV

Structure (SMILES) | IC50
O=C(Nc1cccc(Nc2nccc(-c3cccnc3)n2)c1)c1ccccc1 | 398 nM
Cc1ccc(NC(=O)c2ccc3ccccc3c2)cc1Nc1nccc(-c2cccnc2)n1 | 200 nM
O=C(O)c1ccccc1C(=O)Nc1cccc(Nc2nccc(-c3cccnc3)n2)c1 | 2000 nM
N#Cc1ccc(C(=O)Nc2cccc(Nc3nccc(-c4cccnc4)n3)c2)cc1 | 1290 nM
CCN(CC)c1ccc(NC(=O)Nc2ccc(C)c(Nc3nccc(-c4cccnc4)n3)c2)cc1 | 10000 nM
Cc1ccc(NC(=O)c2ccc(Cl)cc2)cc1Nc1nccc(-c2cccnc2)n1 | 794 nM
Cc1ccc(NC(=O)c2ccc(/N=N/N(C)CCCl)cc2)cc1Nc1nccc(-c2cccnc2)n1 | 17400 nM
O=[N+]([O-])c1cccc(Nc2nccc(-c3cccnc3)n2)c1 | 33900 nM
Cc1ccc(NC(=O)c2ccc(CN3CC(N(C)C)C3)c(C(F)(F)F)c2)cc1Nc1nccc(-c2cncnc2)n1 | 17 nM
Nc1ccc(C(=O)Nc2cccc(Nc3nccc(-c4cccnc4)n3)c2)cc1 | 9770 nM
O=C(Nc1cccc(Nc2nccc(-c3cccnc3)n2)c1)c1ccncc1 | 501 nM
FC(F)C(F)(F)Oc1cccc(Nc2nccc(-c3c[nH]c4ccccc34)n2)c1 | 372 nM
O=C(Nc1cccc(Nc2nccc(-c3cccnc3)n2)c1)C1=CC=CCC1=S | 302 nM
FC(F)C(F)(F)Oc1cccc(Nc2nccc(-c3ccncc3)n2)c1 | 100000 nM
O=C(Nc1cccc(Nc2nccc(-c3cccnc3)n2)c1)c1cccnc1 | 151 nM
COCCN/N=N/c1cccc(Nc2cc(-c3cccnc3)ncn2)c1 | 5370 nM
O=[N+]([O-])c1cccc(Nc2nccc(-c3ccccn3)n2)c1 | 1200 nM
Cc1ccc(NC(=O)N2CCN(C)CC2)cc1Nc1nccc(-c2cccnc2)n1 | 5010 nM

Structure (SMILES) | IC50
Cc1ccc(C(=O)Nc2cccc(Nc3nccc(-c4cccnc4)n3)c2)cc1 | 1000 nM
NCCCn1ccc2c(-c3ccnc(Nc4cccc(OC(F)(F)C(F)F)c4)n3)cccc21 | 347 nM
COc1ccccc1C(=O)Nc1cccc(Nc2nccc(-c3cccnc3)n2)c1 | 1910 nM
CN1CCN(Cc2ccc(C(=O)Nc3cccc(Nc4nccc(-c5cccnc5)n4)c3)cc2)CC1 | 100 nM
Cc1ccc(NC(=O)c2ccc(CN3CCC(CN(C)C)C3)c(C(F)(F)F)c2)cc1Nc1nccc(-c2cncnc2)n1 (stereo not drawn) | 11 nM
O=C(Nc1cccc(Nc2nccc(-c3cccnc3)n2)c1)c1ccc(F)cc1 | 200 nM
COCCN(C)/N=N/c1ccc(C(=O)Nc2cccc(Nc3nccc(-c4cccnc4)n3)c2)cc1 | 33200 nM
O=C(Nc1cccc(Nc2nccc(-c3cccnc3)n2)c1)C1CCCCC1 | 447 nM
Cc1ccc(NC(=O)c2ccccc2)cc1Nc1nccc(-c2cccnc2)n1 | 398 nM
Cc1ccc(NC(=O)Nc2ccc(N(C)C)cc2)cc1Nc1nccc(-c2cccnc2)n1 | 10000 nM
Cc1ccc(NC(=O)c2ccc(CN3CCC(N(C)C)C3)c(C(F)(F)F)c2)cc1Nc1nccc(-c2cncnc2)n1 (stereo not drawn) | 3.98 nM
CN1CCN(c2ccc(C(=O)Nc3n[nH]c4sc(C(=O)NC(C)(C)c5ccccc5)cc34)cc2)CC1 | 4.07 nM
Nc1cccc(Nc2nccc(-c3cccnc3)n2)c1 | 708 nM
Cc1ccc(NC(=O)c2ccc(CN3CCN(C)CC3)c(Cl)c2)cc1Nc1nccc(-c2cccnc2)n1 | 10 nM
Cc1ccc(NC(=O)c2ccc(N)cc2)cc1Nc1nccc(-c2cccnc2)n1 | 67600 nM
O=[N+]([O-])c1cccc(Nc2nccc(-c3ccncc3)n2)c1 | 61700 nM
c1cc(Nc2nccc(-c3cccnc3)n2)cc(OCCn2ccnc2)c1 | 1000 nM
c1cc(CCN2CCOCC2)cc(Nc2nccc(-c3cccnc3)n2)c1 | 10000 nM

Second part, the compound after the results:

IC50 | Structure (SMILES)
20.9 nM | CC(C)(NC(=O)c1cc2c(NC(=O)c3ccc(CN4CCCCC4)cc3)n[nH]c2s1)c1ccccc1
794 nM | COc1ccccc1C(=O)Nc1ccc(C)c(Nc2nccc(-c3cccnc3)n2)c1
603 nM | CCC(=O)Nc1ccc(Sc2nc(Nc3cc(C)[nH]n3)cc(N3CCN(C)CC3)n2)cc1
8910 nM | Cc1ccc(NC(=O)NCCN2CCCC2)cc1Nc1nccc(-c2cccnc2)n1
2190 nM | Cc1ccc(NC(=O)c2ccc(/N=N/N(C)C)cc2)cc1Nc1nccc(-c2cccnc2)n1
7940 nM | O=C(O)c1cccc(Nc2nccc(-c3cccnc3)n2)c1
603 nM | Nc1cccc(Nc2nccc(-c3ccncc3)n2)c1
1510 nM | Clc1cccc(Nc2nccc(-c3cccnc3)n2)c1
5130 nM | COC(=O)c1cccc(Nc2nccc(-c3cccnc3)n2)c1
575 nM | Cc1ccc(NC(=O)Nc2cccc(N(C)C)c2)cc1Nc1nccc(-c2cccnc2)n1
200 nM | CCCCCCC(=O)Nc1cccc(Nc2nccc(-c3cccnc3)n2)c1
50100 nM | Cc1ccc(-c2ccnc(Nc3cccc(OC(F)(F)C(F)F)c3)n2)cc1
64.6 nM | CN1CCN(c2ccc(C(=O)Nc3[nH]nc4c3CN(C(=O)Cc3cccs3)C4)cc2)CC1
3800 nM | O=C(Nc1cccc(Nc2nccc(-c3cccnc3)n2)c1)c1ccccn1
1000 nM | CCN(CC)c1cccc(NC(=O)Nc2ccc(C)c(Nc3nccc(-c4cccnc4)n3)c2)c1
3310 nM | c1cncc(-c2ccnc(Nc3cccc(-n4ccnc4)c3)n2)c1
5750 nM | CC(=O)Nc1ccc(C)c(Nc2nccc(-c3cccnc3)n2)c1
1510 nM | Cc1ccc(N)cc1Nc1nccc(-c2cccnc2)n1
1820 nM | Cc1cccc(Nc2nccc(-c3cccnc3)n2)c1
1000 nM | Cc1ccc(NC(=O)NCc2cccc(Cl)c2)cc1Nc1nccc(-c2cccnc2)n1
398 nM | NCCCCNC(=O)c1cccc(Nc2nccc(-c3cccnc3)n2)c1
10 nM | Cc1ccc(NC(=O)c2ccc(CN3CCN(C)CC3)c(I)c2)cc1Nc1nccc(-c2cccnc2)n1
